Measurements reported in the NIST ThermoML archive (doi:10.1016/j.jct.2016.08.001).

Key:
[1] = 100 kPa, Liquid; for speed of sound: Frequency=3 MHz, Sing-around technique in a fixed-path interferometer; for mass density: Vibrating tube method
[2] = refractive index (Na D-line) (dimensionless); settings: 100 kPa, Liquid, Standard Abbe refractometry
[3] = xn = mol fraction of the nth substance listed; settings: 100 kPa, Liquid, x1 = 1; for speed of sound: Frequency=3 MHz, Sing-around technique in a fixed-path interferometer; for mass density: Vibrating tube method
[4] = refractive index (Na D-line) (dimensionless); xn = mol fraction of the nth substance listed; settings: 100 kPa, Liquid, Standard Abbe refractometry, x1 = 1

O=Cc1ccccc1 [benzaldehyde]
Settings	mass density, [1] [kg/m3]	refractive index, [2]	speed of sound, [1] [m/s]
298.15 K	1041	1.541	1457.3
303.15 K	1036.5	1.5383	1438.9
308.15 K	1032	1.5357	1420.6
313.15 K	1027.5	1.5332	1402.4
318.15 K	1023	1.5307	1384.4
323.15 K	1018.4	1.5282	1366.4

CCOC(=O)OCC [diethyl carbonate]
Settings	mass density, [1] [kg/m3]	refractive index, [2]	speed of sound, [1] [m/s]
298.15 K	969.1	1.3825	1177.5
303.15 K	963.5	1.3802	1156.9
308.15 K	957.8	1.3779	1136.6
313.15 K	952.1	1.3756	1116.5
318.15 K	946.4	1.3733	1096.5
323.15 K	940.7	1.371	1076.7

N#Cc1ccccc1 [benzonitrile]
Settings	mass density, [1] [kg/m3]	refractive index, [2]	speed of sound, [1] [m/s]
298.15 K	1000.6	1.526	1415.6
303.15 K	995.9	1.5235	1398.1
308.15 K	991.4	1.5209	1380.8
313.15 K	986.9	1.5184	1363.6
318.15 K	982.5	1.5158	1346.5
323.15 K	977.9	1.5133	1329.5

CCOC(=O)OCC [diethyl carbonate] + O=Cc1ccccc1
Settings	mass density, [3] [kg/m3]	refractive index, [4]	speed of sound, [3] [m/s]
298.15 K	969.1	1.3825	1177.5
303.15 K	963.5	1.3802	1156.9
308.15 K	957.8	1.3779	1136.6
313.15 K	952.1	1.3756	1116.5
318.15 K	946.4	1.3733	1096.5
323.15 K	940.7	1.371	1076.7

Nc1ccccc1 [aniline]
Settings	mass density, [1] [kg/m3]	refractive index, [2]	speed of sound, [1] [m/s]
298.15 K	1017.1	1.5826	1636.8
303.15 K	1012.7	1.5793	1617.5
308.15 K	1008.4	1.576	1598.3
313.15 K	1004.1	1.5727	1579.1
318.15 K	999.7	1.5694	1560
323.15 K	995.4	1.5661	1540.9

CCOC(=O)OCC [diethyl carbonate] + N#Cc1ccccc1
Settings	mass density, [3] [kg/m3]	refractive index, [4]	speed of sound, [3] [m/s]
298.15 K	969.1	1.3825	1177.5
303.15 K	963.5	1.3802	1156.9
308.15 K	957.8	1.3779	1136.6
313.15 K	952.1	1.3756	1116.5
318.15 K	946.4	1.3733	1096.5
323.15 K	940.7	1.371	1076.7

CCOC(=O)OCC [diethyl carbonate] + Nc1ccccc1
Settings	mass density, [3] [kg/m3]	refractive index, [4]	speed of sound, [3] [m/s]
298.15 K	969.1	1.3825	1177.5
303.15 K	963.5	1.3802	1156.9
308.15 K	957.8	1.3779	1136.6
313.15 K	952.1	1.3756	1116.5
318.15 K	946.4	1.3733	1096.5
323.15 K	940.7	1.371	1076.7
